ChEMBL document CHEMBL1201862, “PubChem BioAssay data set” (2004)
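Dose response: 5 concentrations. Exposure: 48 h. Format: 96-well plates. Endpoint: linear interpolation; highest concentration if not reached. Here, GI50 denotes the concentration required for 50% inhibition of growth.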 Activity calls are given as the source filed them. No stated cut-off is given here; in the data, active = GI50 up to about 1.1 µM and inactive = higher.

Assays:
Test in all cases: NCI tumour cell line growth inhibition, 48 h
SN12C = system: SN12C
HCT-116 = system: HCT-116
UO-31 = system: UO-31
OVCAR-4 = system: OVCAR-4
DU-145 = system: DU-145
NCI-H460 = system: NCI-H460
MDA-MB-435 = system: MDA-MB-435
CAKI-1 = system: CAKI-1
A549 = system: A549
SW-620 = system: SW-620
UACC-257 = system: UACC-257
NCI-H23 = system: NCI-H23
U-251 = system: U-251
HCT-15 = system: HCT-15
HOP-62 = system: HOP-62
OVCAR-3 = system: OVCAR-3
OVCAR-5 = system: OVCAR-5
TK-10 = system: TK-10
SK-OV-3 = system: SK-OV-3
MDA-MB-231 = system: MDA-MB-231

Row | Structure (SMILES) | GI50 (SN12C) | GI50 (HCT-116) | GI50 (UO-31) | GI50 (OVCAR-4) | GI50 (DU-145) | GI50 (NCI-H460) | GI50 (MDA-MB-435) | GI50 (CAKI-1) | GI50 (A549) | GI50 (SW-620) | GI50 (UACC-257) | GI50 (NCI-H23) | GI50 (U-251) | GI50 (HCT-15) | GI50 (HOP-62) | GI50 (OVCAR-3) | GI50 (OVCAR-5) | GI50 (TK-10) | GI50 (SK-OV-3) | GI50 (MDA-MB-231)
1 | C(=N\c1ccc(-c2nc3ccccc3s2)cc1)/c1ccc[nH]1 | 19.5 µM (inactive) | 16.1 µM (inactive) | 17.4 µM (inactive) | 23.8 µM (inactive) | 17.3 µM (inactive) | 17.1 µM (inactive) | 19.2 µM (inactive) | 22.8 µM (inactive) | 25.6 µM (inactive) | 22.4 µM (inactive) | 17.1 µM (inactive) | 16.8 µM (inactive) | 14.4 µM (inactive) | 13.6 µM | 12.5 µM (inactive) | 14.7 µM (inactive) | 22 µM (inactive) | 31.8 µM (inactive) | 17.7 µM (inactive) | –
2 | C/C=N\n1c(C)n[nH]c1=O | > 100 µM (inactive) | > 100 µM (inactive) | > 100 µM (inactive) | > 100 µM (inactive) | > 100 µM (inactive) | > 100 µM (inactive) | > 100 µM (inactive) | > 100 µM (inactive) | > 100 µM (inactive) | > 100 µM (inactive) | > 100 µM (inactive) | > 100 µM (inactive) | > 100 µM (inactive) | > 100 µM | > 100 µM (inactive) | > 100 µM (inactive) | > 100 µM (inactive) | > 100 µM (inactive) | – | –
3 | Cc1ccc(NC(=O)C(=O)C(C(=O)c2ccc3ccccc3c2)C2OC(=O)c3ccccc32)c(C)c1 (stereo not drawn) | 15.5 µM (inactive) | 6.35 µM (inactive) | 13.1 µM (inactive) | 6.76 µM (inactive) | – | 5.57 µM (inactive) | – | 6.68 µM (inactive) | 18 µM (inactive) | 5.71 µM (inactive) | 12.8 µM (inactive) | 8.13 µM (inactive) | 3.64 µM (inactive) | 14.3 µM | 6.12 µM (inactive) | 9.38 µM (inactive) | 16.3 µM (inactive) | 20.3 µM (inactive) | 12.5 µM (inactive) | –
4 | COc1ccc(C(=O)C(CO)Oc2ccccc2OC)cc1OC (stereo not drawn) | > 100 µM (inactive) | > 100 µM (inactive) | > 100 µM (inactive) | > 100 µM (inactive) | – | > 100 µM (inactive) | – | > 100 µM (inactive) | > 100 µM (inactive) | > 100 µM (inactive) | > 100 µM (inactive) | > 100 µM (inactive) | > 100 µM (inactive) | > 100 µM | > 100 µM (inactive) | > 100 µM (inactive) | > 100 µM (inactive) | > 100 µM (inactive) | > 100 µM (inactive) | –
5 | CC1(C(=O)O)C[C@](C)(C(=O)OCc2ccccc2)C[C@](C)(C(=O)OCc2ccccc2)C1 (stereo partly drawn) | 30.2 µM (inactive) | 24.1 µM (inactive) | 21.9 µM (inactive) | 39.8 µM (inactive) | 29.8 µM (inactive) | 23.9 µM (inactive) | 40.5 µM (inactive) | 25.4 µM (inactive) | 35.6 µM (inactive) | 47 µM (inactive) | 38.9 µM (inactive) | 25.1 µM (inactive) | – | 25.5 µM | 30.5 µM (inactive) | 26.4 µM (inactive) | 34.3 µM (inactive) | 43.3 µM (inactive) | 32.6 µM (inactive) | –
6 | C=C1C(=O)OC2CCCCC3OC3C12 (stereo not drawn) | 7.62 µM (inactive) | 2.99 µM (inactive) | 15.4 µM (inactive) | 14.2 µM (inactive) | – | 14.8 µM (inactive) | – | 3.36 µM (inactive) | 20.9 µM (inactive) | 4.06 µM (inactive) | 13.4 µM (inactive) | 14.4 µM (inactive) | 10.7 µM (inactive) | 6.9 µM | 21.8 µM (inactive) | 13.4 µM (inactive) | 18.2 µM (inactive) | 13.8 µM (inactive) | 16.5 µM (inactive) | –
7 | Cc1cc(N(CCC#N)CCC#N)ccc1/C=C(\N=[N+]=[N-])C(=O)NC(=O)COc1ccccc1 | > 100 µM (inactive) | > 100 µM (inactive) | > 100 µM (inactive) | > 100 µM (inactive) | – | > 100 µM (inactive) | – | > 100 µM (inactive) | > 100 µM (inactive) | > 100 µM (inactive) | > 100 µM (inactive) | > 100 µM (inactive) | > 67.8 µM (inactive) | > 100 µM | > 100 µM (inactive) | > 100 µM (inactive) | > 100 µM (inactive) | > 100 µM (inactive) | > 100 µM (inactive) | –
8 | O=c1cc(NNc2ccccc2F)[nH]c(=O)[nH]1 | – | 16.9 µM (inactive) | 12.2 µM (inactive) | 17.7 µM (inactive) | 43.3 µM (inactive) | 0.0667 µM (active) | – | 13 µM (inactive) | 55 µM (inactive) | 18 µM (inactive) | 17.7 µM (inactive) | 17.3 µM (inactive) | 17.7 µM (inactive) | 16 µM | – | 17.7 µM (inactive) | 19.5 µM (inactive) | 14.4 µM (inactive) | 21.1 µM (inactive) | 16.3 µM (inactive)
9 | O=C1NC2(CCCCC2)C2CCCCC=C12 (stereo not drawn) | > 100 µM (inactive) | > 100 µM (inactive) | > 100 µM (inactive) | > 100 µM (inactive) | – | > 100 µM (inactive) | – | > 100 µM (inactive) | > 100 µM (inactive) | > 100 µM (inactive) | > 100 µM (inactive) | > 100 µM (inactive) | > 100 µM (inactive) | > 100 µM | > 100 µM (inactive) | > 100 µM (inactive) | > 100 µM (inactive) | > 100 µM (inactive) | > 100 µM (inactive) | –
10 | c1ccc(/N=C(\N2CCCC2)N(CCN2CCCC2)c2ccccc2)cc1 | 29.8 µM (inactive) | 1.83 µM (inactive) | 14.8 µM (inactive) | 32.1 µM (inactive) | > 10 µM (inactive) | 10.3 µM (inactive) | 7.67 µM (inactive) | 53.5 µM (inactive) | 56.6 µM (inactive) | 11.4 µM (inactive) | 21 µM (inactive) | 11.1 µM (inactive) | 29.9 µM (inactive) | 22.1 µM | 9.79 µM (inactive) | 20 µM (inactive) | 29.6 µM (inactive) | 30.8 µM (inactive) | 63.4 µM (inactive) | –
11 | CCOC(=O)c1ccc(N[C@@H]2c3cc4c(cc3C(C3=CC(=O)C(=O)C(OC)=C3)[C@H]3C(=O)OCC32)OCO4)cc1 (stereo partly drawn) | 2 µM (inactive) | 2.86 µM (inactive) | 2.52 µM (inactive) | 24.2 µM (inactive) | – | 0.173 µM (active) | – | 0.634 µM (active) | 0.548 µM (active) | 2.34 µM (inactive) | 9.08 µM (inactive) | 1.54 µM (inactive) | 0.995 µM (active) | 2.21 µM | 0.512 µM (active) | 8.47 µM (inactive) | 4.88 µM (inactive) | 9.84 µM (inactive) | 2.26 µM (inactive) | –
12 | COc1cc(Oc2c(O)c(C)c(OC)c(C(C)=O)c2O)c(C(C)=O)c(O)c1C | 34.9 µM (inactive) | 52.8 µM (inactive) | 43.1 µM (inactive) | 45.2 µM (inactive) | – | 46.9 µM (inactive) | – | 60.3 µM (inactive) | 45.8 µM (inactive) | 57.3 µM (inactive) | 40.6 µM (inactive) | 34.4 µM (inactive) | 44.2 µM (inactive) | 47.6 µM | 34.3 µM (inactive) | 43 µM (inactive) | 98.2 µM (inactive) | 49.4 µM (inactive) | > 100 µM (inactive) | –
13 | COc1cc(C(=O)C/C(CCC(=O)Nc2ccc(Cl)cc2C)=N/NC(=O)C(N)=O)ccc1O | > 100 µM (inactive) | > 100 µM (inactive) | 43.1 µM (inactive) | > 100 µM (inactive) | – | > 100 µM (inactive) | – | > 100 µM (inactive) | > 100 µM (inactive) | > 100 µM (inactive) | > 100 µM (inactive) | > 100 µM (inactive) | > 100 µM (inactive) | > 100 µM | > 100 µM (inactive) | > 100 µM (inactive) | > 100 µM (inactive) | > 100 µM (inactive) | 65.3 µM (inactive) | –
14 | O=C(NC1CCCCC1)c1c(O)[nH]c(=S)[nH]c1=O | > 100 µM (inactive) | > 100 µM (inactive) | 79.3 µM (inactive) | > 100 µM (inactive) | – | 57 µM (inactive) | – | > 100 µM (inactive) | 52.4 µM (inactive) | > 100 µM (inactive) | > 100 µM (inactive) | > 100 µM (inactive) | 88.5 µM (inactive) | > 100 µM | > 100 µM (inactive) | > 100 µM (inactive) | > 100 µM (inactive) | > 100 µM (inactive) | > 100 µM (inactive) | –
15 | CC(C)(C)c1cc(C#N)c2c(c1)C(=O)OC2(c1ccccc1)c1ccccc1C#N (stereo not drawn) | > 100 µM (inactive) | > 100 µM (inactive) | 32.1 µM (inactive) | > 100 µM (inactive) | – | > 100 µM (inactive) | – | > 100 µM (inactive) | > 100 µM (inactive) | > 100 µM (inactive) | 87.7 µM (inactive) | > 100 µM (inactive) | > 100 µM (inactive) | 29.5 µM | > 100 µM (inactive) | 94.6 µM (inactive) | > 100 µM (inactive) | > 100 µM (inactive) | > 100 µM (inactive) | –
16 | COc1cccc(C23CCCC(C2)N(C)CC3OC(=O)c2ccccc2)c1OC (stereo not drawn) | – | 20 µM (inactive) | > 100 µM (inactive) | 24 µM (inactive) | 36 µM (inactive) | 20.6 µM (inactive) | 18 µM (inactive) | 42.4 µM (inactive) | 41 µM (inactive) | 24.4 µM (inactive) | 25.8 µM (inactive) | 10.7 µM (inactive) | 28.3 µM (inactive) | 22.5 µM | 31.3 µM (inactive) | 24.8 µM (inactive) | 26.4 µM (inactive) | – | 34 µM (inactive) | –
